Data as given in US20220323389A1, “TREATING NON-ALCOHOLIC FATTY LIVER DISEASE AND INFLAMMATORY STEATOHEPATITIS WITH SLC25A1 INHIBITORS” (GEORGETOWN UNIVERSITY, priority 2019, published 2022).

What was measured:
liver of HFD-fed mice [1] = experiment: Liver metabolites and lipid profile (LC-MS, Lipidyzer) in HFD-fed mice; type: in vivo, mouse
Source text: (§1) Cells, reagents, antibodies, primers. CTPI-2 was purchased from Enamine Ltd. (Monmouth Jct, N.J.). The anti-SLC25A1 antibody used in immunoblots was either from Santa Cruz Biotech (Dallas, Tex.), (#sc-86392), employed at 1:1000 dilution, or from Proteintech (15235-1-AP, Rosemont, Ill.), employed at 1:1000 dilution. Mice and diets. For the majority of the experiments (except for experiments harboring genetic alterations of the Slc25a1 gene), DIO C57BL/6J mice were purchased from Jackson Laboratory (Bar Harbor, Me.) between 4-6 weeks of age. Mice were acclimated in the Georgetown University animal facility for at least one week. At the indicated times, mice were randomized to a standard laboratory chow diet (Labdiet #5053, St. Louis, Mo.) or the high fat diet (Researchdiets D12492, New Brunswick, N.J.), with 60% calories derived from fat (lard), and 20% from sucrose. During the course of the experiments, mice were housed at one mouse per cage and food consumption was measured regularly. Animals were maintained in a normal light-cycle and provided with water ad libitum. CTPI-2 treatment. CTPI-2 was administered at 50 mg/kg via intra-peritoneal injection on alternate days. CTPI-2 was diluted either in DMSO (at 0.2% final concentration) using DMSO as vehicle control, or in 0.47% Sodium Bicarbonate (NaCO3) at a final concentration of 14 mM. NaCO3 (0.47%) served as vehicle control. Immunoblot of murine tissues. Frozen tissue samples were homogenized in radioimmunoprecipitation (RIPA) buffer with protease inhibitor cocktails. Protein quantification was done by using a Coomassie (Bradford) Protein Assay Kit (Pierce, Waltham Mass.). Equal amount of protein lysate was loaded and separated by Novex™ 4-20% Tris-Glycine Mini Gel (Invitrogen, Carlsbad, Calif.), then transferred to a PVDF membrane. Appropriate horseradish peroxidase-conjugated secondary antibody (Invitrogen) was applied after incubation with primary antibody. SuperSignal™ West Pico PLUS Chemiluminescent Substrate (Thermo Fisher Scientific, Waltham, Mass.) was used for protein detection. SLC25a1 strains. The original Slc25a1 tm1a strain was purchased from the Mutant Mouse Resource and Research Center (MMRRC, Chapel Hill, N.C.) (C57BL/6N-Slc25a1^tm1a(EUCOMM)Wtsi, RRID: MMRRC_042258-UCD). The Tg(Alb-cre)21M (Alb-Cre) mice were purchased from Jackson Laboratory (#003574). Slc25a1^+/−, Slc25a1^fl/fl and Alb/Cre mice were genotyped by conventional PCR with genomic DNA extracted from the mouse tail biopsies. Agarose gel electrophoresis was used for analysis of PCR product analysis. The PCR conditions used were as follows: 95° C. for 4 minutes, followed by 40 cycles (95° C. for 30 seconds, 65° C. for 30 seconds, and 72° C. for 50 seconds), 72° C. for 2 min then kept in 4° C. before used. Histological Analysis. Assessment of steatosis was performed on paraffin embedded H&E stained sections derived from 3-6 animals and on multiple images for each animal. The steatosis grade was scored according to the degree of liver involvement with 0, <5%; 1, 5% to 33%; 2, 33% to 50%; and 3, >50%. Alternatively, the percentage of steatosis per area was calculated with ImageJ program. Lypidomic analysis. Targeted quantitation of triglycerides was performed using multiple reaction monitoring mass spectrometry. The samples were resolved on an CORTECS T3 2.7 μm, 2.1×30 mm column online with a triple quadrupole mass spectrometer (Xevo-TQ-S, Waters Corporation, Milford, Mass.) operating in the multiple reaction monitoring (MRM) mode. Signal intensities from all MRM Q1/Q3 ion pairs for triglycerides were ranked to ensure selection of the most intense precursor and fragment ion pair for MRM-based quantitation. […] The LC and MRM method used here for the study was developed by Waters Corporation. The metabolite ratios were calculated by normalizing the peak area of endogenous metabolites within tissue samples normalized to the internal standard. Processed data was normalized with respect to tissue weight taken for analysis. […]

[2] = system: mice fed with a normal diet; experiment: Body weight of mice fed control (normal) diet and treated with CTPI-2; type: in vivo; conditions: CTPI-2 for 5 months
Source text: Cells, reagents, antibodies, primers. CTPI-2 was purchased from Enamine Ltd. (Monmouth Jct, N.J.). The anti-SLC25A1 antibody used in immunoblots was either from Santa Cruz Biotech (Dallas, Tex.), (#sc-86392), employed at 1:1000 dilution, or from Proteintech (15235-1-AP, Rosemont, Ill.), employed at 1:1000 dilution. Mice and diets. For the majority of the experiments (except for experiments harboring genetic alterations of the Slc25a1 gene), DIO C57BL/6J mice were purchased from Jackson Laboratory (Bar Harbor, Me.) between 4-6 weeks of age. Mice were acclimated in the Georgetown University animal facility for at least one week. […] During the course of the experiments, mice were housed at one mouse per cage and food consumption was measured regularly. […] Protein quantification was done by using a Coomassie (Bradford) Protein Assay Kit (Pierce, Waltham Mass.). […] The steatosis grade was scored according to the degree of liver involvement with 0, <5%; 1, 5% to 33%; 2, 33% to 50%; and 3, >50%. Alternatively, the percentage of steatosis per area was calculated with ImageJ program. […] Targeted quantitation of triglycerides was performed using multiple reaction monitoring mass spectrometry. […] Signal intensities from all MRM Q1/Q3 ion pairs for triglycerides were ranked to ensure selection of the most intense precursor and fragment ion pair for MRM-based quantitation. […]

HFD-fed mice = experiment: Inflammation and fibrosis in HFD-fed mice (serum interleukins, macrophage IHC, RT-PCR, Picro-Sirius Red); type: in vivo, mouse
Source text: as §1

liver of HFD-fed mice [3] = experiment: Liver steatosis / steatohepatitis histology and serum chemistry in HFD-fed mice (time course); type: in vivo, mouse
Source text: as §1

[4] = HFD-fed mice, CTPI-2 vs vehicle
[5] = HFD-fed mice, CTPI-2 50 mg/kg i.p. alternate days

SMILES: O=C(O)c1ccccc1NS(=O)(=O)c1ccc(Cl)c([N+](=O)[O-])c1 [CTPI-2]
- Ac-CoA concentration in the liver (liver of HFD-fed mice [1]; HFD+CTPI-2 vs HFD-vehicle): significantly lower
- citrate concentration in the liver (liver of HFD-fed mice [1]; HFD+CTPI-2 vs HFD-vehicle): significantly lower
- liver diglycerides levels (liver of HFD-fed mice [1]; LC-MS): reduced the levels
- liver linoleic acid levels (liver of HFD-fed mice [1]; LC-MS): reduced the levels
- liver monoglycerides levels (liver of HFD-fed mice [1]; LC-MS): reduced the levels
- liver palmitic acid levels (liver of HFD-fed mice [1]; LC-MS): reduced the levels
- liver phosphatidylglycerol levels (liver of HFD-fed mice [1]; LC-MS): reduced the levels
- liver concentration of long chain triglycerides (liver of HFD-fed mice [1]; Lipidyzer platform): significantly diminished
- total level of free fatty acids in the liver (liver of HFD-fed mice [1]; Lipidyzer platform, particularly chain 16 to 25): significantly diminished
- liver concentration of lactate (liver of HFD-fed mice [1]; targeted LC-MS): decreased
- liver concentration of pyruvate (liver of HFD-fed mice [1]; targeted LC-MS): decreased
- body weights [2]: did not modify body weights
- collagen in the liver (Picro-Sirius Red) (HFD-fed mice; HFD-fed mice): reduction of collagen in the liver
- circulating serum IL-4 (HFD-fed mice; [4]): increasing
- circulating serum IL-6 (HFD-fed mice; [4]): lowered
- circulating serum IL-10 (HFD-fed mice; [4]): increasing
- monocyte chemo-attractant protein-1 (MCP1) (HFD-fed mice; HFD-fed mice, serum): reduced
- monokine induced by interferon-γ (MIG) (HFD-fed mice; HFD-fed mice, serum): reduced
- adipose tissue macrophage infiltration organized in crown-like structures (HFD-fed mice; HFD-fed mice, IHC): completely resolved this phenotype
- liver Kupffer cell macrophage population (F4/80) and perivascular macrophage infiltration (HFD-fed mice; HFD-fed mice, IHC): reversed
- M2 markers (MRC1, FN-1, Arg1) mRNA (HFD-fed mice; liver of HFD-fed mice, RT-PCR): either not affecting or increasing
- expression of anti-fibrotic cadherin 1 (HFD-fed mice; liver of HFD-fed mice, RT-PCR): increase
- expression of pro-fibrotic genes (collagen 1 and 4, keratin 19, PDGFR) (HFD-fed mice; liver of HFD-fed mice, RT-PCR): reduction
- pro-inflammatory markers of the M1 phenotype (mRNA) (HFD-fed mice; liver of HFD-fed mice, RT-PCR): repressed
- prevention of liver steatosis relative to Cre/Alb+:Slc25a1−/− mice (liver of HFD-fed mice [3]; HFD conditions): more effectively prevented liver steatosis
- alanine aminotransferase (ALT) levels (liver of HFD-fed mice [3]; [5]): normalized
- total serum cholesterol levels (liver of HFD-fed mice [3]; [5]): normalized
- serum triglyceride levels (liver of HFD-fed mice [3]; HFD-fed mice, CTPI-2 50 mg/kg i.p. alternate days, LC-MS): normalized
